Measurements reported in patent US9474790B2, “Stable, protracted GLP-1/glucagon receptor co-agonists for medical use” (Novo Nordisk A/S, priority 2013, dated 2016).
Numbered stars: 1 amine (or outer) side, 2 acyl side, 3 side chain; on linkers, the order of the positions; unused ones are H or OH. Square brackets hold non-standard residues; d marks the D form. Side chains are listed from the residue outwards. Peptide text beside a SMILES is read from it. * marks the point of attachment. C18 diacid = O=C(O)CCCCCCCCCCCCCCCCC(=O)*; γGlu = O=C(O)[C@H](CCC(=O)[*:2])N[*:1]; AEEA = NCCOCCOCC(=O)O; Aib = CC(C)(N)C(=O)O

How the values were obtained:
DIO mice = test: In vivo test in diet-induced obese (DIO) mice: body weight and blood glucose; design: species or system c57bl/6J mice
From the text: The purpose of this experiment was to investigate effect of the glucagon-GLP-1R co-agonists from Example 8 and Example 12 on body weight and blood glucose in vivo in DIO mice. Liraglutide (a human GLP-1 analogue marketed by Novo Nordisk NS under the brand name VictozaTM) was included for comparison. Male […]/6J mice obtained from Jackson Lab (USA) were fed a high fat diet (Research Diets D12451, 45% kcal fat) to obtain approximately 50% overweight compared to age-matched lean control mice. The DIO mice are characterized by normoglycemia, insulin resistance and obesity. […] The co-agonists, i.e. the glucagon derivatives, were dissolved in 50 mM Na2HPO4, 145 mM NaCl og 0.05% Tween 80, pH 7.4, while liraglutide was diluted from 6 mg/ml VictozaTM pens in DPBS buffer (Invitrogen) containing 0.5% rat serum albumin. Vehicle treated animals received 50 mM Na2HPO4, 145 mM NaCl og 0.05% Tween 80, pH 7.4. Compounds and vehicle were dosed (1 ml/kg) for 5 weeks s.c. once daily just prior to lights out. For the first half of the study co-agonists were administered at a dose of 5 nmol/kg and for the second half of the study co-agonists were administered at a dose of 10 nmol/kg. For comparison, liraglutide at a dose of 100 nmol/kg, likewise dosed s.c. once daily, was included. Body weight was monitored before dosing, daily during the dosing period. Non-fasted blood glucose was measured on the day of initiation of dosing and weekly during the dosing period, prior to dosing. Blood for measurement of blood glucose was taken from the tail tip capillary and blood glucose was measured using a glucose analyzer (Biosen 5040) based on the glucose oxidase method. The body weight reduction/body weight at the end of the 5 week treatment period and area under the blood glucose curve during the five week treatment period are given in the tables below.

human GLP-1 receptor = target: T1, human GLP-1 receptor (Homo sapiens, UniProt P43220); test: GLP-1 receptor potency, CRE luciferase reporter gene assay in BHK cells; assay type: cell-based; conditions: BHK cells expressing human GLP-1 receptor, read-out: EC50 GLP-1R
T1 construct: expressed in transfected cells; host or cells: BHK cells (parent BHKTS13), clone FCW467-12A/KZ10-1, with CRE luciferase
T1 sequence (P43220 24-463): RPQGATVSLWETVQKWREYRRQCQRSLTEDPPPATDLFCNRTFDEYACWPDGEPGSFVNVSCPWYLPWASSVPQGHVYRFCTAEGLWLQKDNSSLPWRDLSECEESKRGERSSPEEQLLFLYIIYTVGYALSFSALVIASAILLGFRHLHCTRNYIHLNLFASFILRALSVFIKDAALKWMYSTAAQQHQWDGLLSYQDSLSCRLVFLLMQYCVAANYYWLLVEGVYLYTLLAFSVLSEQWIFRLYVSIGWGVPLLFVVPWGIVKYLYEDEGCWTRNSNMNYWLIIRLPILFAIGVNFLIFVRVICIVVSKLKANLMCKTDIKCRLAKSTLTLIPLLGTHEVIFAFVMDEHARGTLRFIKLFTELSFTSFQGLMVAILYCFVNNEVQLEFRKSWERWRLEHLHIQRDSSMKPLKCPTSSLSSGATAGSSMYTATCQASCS
In short: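 BHK cells stably expressing human GLP-1 receptor with CRE-luciferase reporter, 5×10EE3 cells/well in phenol red-free DMEM with 10 mM Hepes, 2% ovalbumin, 0.2% Pluronic F-68. Compounds at final 1×10EE-6 to 1×10EE-13 M, 3 h at 37° C; steadylite luminescence; EC50 by four-parameter fit, in pM.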

CC(C)C[C@H](NC(=O)[C@H](CC(C)C)NC(=O)[C@H](Cc1c[nH]c2ccccc12)NC(=O)[C@H](CCC(N)=O)NC(=O)[C@@H](NC(=O)[C@H](Cc1ccccc1)NC(=O)[C@H](CCC(=O)O)NC(=O)[C@H](CCCNC(=N)N)NC(=O)[C@H](C)NC(=O)[C@H](CCCNC(=N)N)NC(=O)[C@H](CCCNC(=N)N)NC(=O)[C@H](CO)NC(=O)[C@H](CC(=O)O)NC(=O)[C@H](CC(C)C)NC(=O)[C@H](Cc1ccc(O)cc1)NC(=O)[C@H](CCCCN)NC(=O)[C@H](CO)NC(=O)[C@H](CC(C)C)NC(=O)[C@H](CC(=O)O)NC(=O)[C@H](CO)NC(=O)[C@@H](NC(=O)[C@H](Cc1ccccc1)NC(=O)[C@@H](NC(=O)CNC(=O)[C@H](CCC(N)=O)NC(=O)C(C)(C)NC(=O)[C@@H](N)Cc1c[nH]cn1)[C@@H](C)O)[C@@H](C)O)C(C)C)C(=O)N[C@@H](CC(N)=O)C(=O)N[C@@H](CCCCNC(=O)CC[C@H](NC(=O)CC[C@H](NC(=O)COCCOCCNC(=O)COCCOCCNC(=O)CC[C@H](NC(=O)CCCCCCCCCCCCCCCCC(=O)O)C(=O)O)C(=O)O)C(=O)O)C(N)=O [Example 12, N^ε29-[(4S)-4-carboxy-4-[[(4S)-4-carboxy-4-[[2-[2-[2-[[2-[2-[2-[[(4S)-4-carboxy-4-(17-carboxyheptadecanoylamino)butanoyl]amino]ethoxy]ethoxy]acetyl]amino]ethoxy]ethoxy]acetyl]amino]butanoyl]amino]butanoyl]-[Aib2,Leu10,Arg20,Glu21,Leu27,Lys29]-Glucagon amide] (H-H[Aib]QGTFTSDLSKYLDSRRAREFVQWLLNK([γGlu-γGlu-AEEA-AEEA-γGlu-C18 diacid])-NH2)
lowering of body weight in vivo (DIO mice; 5 weeks s.c. once daily): tends to be superior to liraglutide alone | Percent BW of baseline at week 5 (mean ± SD) (DIO mice; s.c. once daily 5 weeks, co-agonists 5 then 10 nmol/kg, liraglutide 100 nmol/kg): 75% ± 8% | EC50 (human GLP-1 receptor): 0.0147 nM
